According to BindingDB's records for doi:10.1016/s0960-894x(01)00096-8 (Seoul National University, 2001):
pIC50: −log10 of the molar value.

Assays:
[1] = biological target: Methionine--tRNA ligase (Escherichia coli) (UniProt P00959); assay: Inhibitory concentration against methionyl-tRNA synthetase was determined by measuring decrease of the aminoacylation product [35S]- methionyl tRNA of Escherichia coli
[2] = biological target: Isoleucine--tRNA ligase (Escherichia coli) (UniProt P00956); assay: Inhibitory concentration against isoleucyl-tRNA synthetase was determined by measuring decrease of the aminoacylation product [3H]- isoleucyl tRNA of Escherichia coli
[3] = biological target: Isoleucine--tRNA ligase (Escherichia coli) (UniProt P00956); assay: as above; remark: listed apart in the source
[4] = Inhibitory concentration against methionyl-tRNA synthetase was determined by measuring decrease of the aminoacylation product [35S]- methionyl tRNA of Escherichia coli

Isoleucine--tRNA ligase (Escherichia coli), sequence (P00956 whole entry, looked up): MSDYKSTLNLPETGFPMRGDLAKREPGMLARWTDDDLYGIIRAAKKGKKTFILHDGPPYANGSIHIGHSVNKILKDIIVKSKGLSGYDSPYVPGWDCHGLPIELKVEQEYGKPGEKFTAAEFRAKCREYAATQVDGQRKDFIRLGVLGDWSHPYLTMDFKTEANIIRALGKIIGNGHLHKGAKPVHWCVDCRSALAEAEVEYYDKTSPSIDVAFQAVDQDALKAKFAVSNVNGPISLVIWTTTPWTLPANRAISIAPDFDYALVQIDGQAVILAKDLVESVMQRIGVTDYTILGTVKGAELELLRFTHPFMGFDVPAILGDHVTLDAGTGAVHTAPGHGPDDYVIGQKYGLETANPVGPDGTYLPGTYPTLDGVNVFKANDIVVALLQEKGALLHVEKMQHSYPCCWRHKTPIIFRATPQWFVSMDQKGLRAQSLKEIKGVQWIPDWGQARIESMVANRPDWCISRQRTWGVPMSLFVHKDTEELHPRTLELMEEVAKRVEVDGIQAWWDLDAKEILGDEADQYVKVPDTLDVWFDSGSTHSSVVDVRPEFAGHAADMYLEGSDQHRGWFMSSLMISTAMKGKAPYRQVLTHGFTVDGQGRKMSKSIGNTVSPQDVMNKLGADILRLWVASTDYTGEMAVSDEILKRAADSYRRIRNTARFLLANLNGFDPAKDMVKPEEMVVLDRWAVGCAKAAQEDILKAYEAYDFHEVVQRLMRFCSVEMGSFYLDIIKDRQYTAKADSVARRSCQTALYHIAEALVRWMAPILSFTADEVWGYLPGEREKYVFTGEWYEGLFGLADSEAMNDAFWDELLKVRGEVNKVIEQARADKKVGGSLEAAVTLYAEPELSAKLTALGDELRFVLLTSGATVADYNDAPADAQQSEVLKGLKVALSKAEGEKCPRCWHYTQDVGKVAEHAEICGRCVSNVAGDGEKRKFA
Methionine--tRNA ligase (Escherichia coli), sequence (P00959 whole entry, looked up): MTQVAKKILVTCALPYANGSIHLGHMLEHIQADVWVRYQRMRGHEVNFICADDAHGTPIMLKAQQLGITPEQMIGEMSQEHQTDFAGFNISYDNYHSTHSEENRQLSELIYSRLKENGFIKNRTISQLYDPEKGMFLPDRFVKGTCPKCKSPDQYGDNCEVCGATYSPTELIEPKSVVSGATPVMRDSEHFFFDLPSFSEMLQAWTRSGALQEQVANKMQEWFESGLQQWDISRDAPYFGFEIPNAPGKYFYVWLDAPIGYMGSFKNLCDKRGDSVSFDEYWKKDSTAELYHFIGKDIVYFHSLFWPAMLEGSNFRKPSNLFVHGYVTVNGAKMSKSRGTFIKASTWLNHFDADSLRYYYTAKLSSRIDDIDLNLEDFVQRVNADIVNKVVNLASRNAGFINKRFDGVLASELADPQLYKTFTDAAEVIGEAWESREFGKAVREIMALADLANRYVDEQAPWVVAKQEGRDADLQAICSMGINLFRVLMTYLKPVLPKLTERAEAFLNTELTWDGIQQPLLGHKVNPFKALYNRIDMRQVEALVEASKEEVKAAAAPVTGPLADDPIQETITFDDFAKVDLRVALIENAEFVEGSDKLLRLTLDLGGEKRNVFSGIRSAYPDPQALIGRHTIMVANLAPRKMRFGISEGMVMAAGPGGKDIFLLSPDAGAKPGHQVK

| SMILES | pIC50 [1] | pIC50 [2] | also measured |
| --- | --- | --- | --- |
| COc1ccc(C2=NOC(COC(=O)[C@@H](N)CCSC)C2)cc1O (stereo partly drawn) [(S)-1-[3-(3-Hydroxy-4-methoxy-phenyl)-4,5-dihydro-isoxazol-5-ylmethoxycarbonyl]-3-methylsulfanyl-propyl-ammonium] | 4.33 | – | – |
| CCC(C)[C@H](N)C(=O)OCC1CC(c2ccc(OC)c(O)c2)=NO1 (stereo partly drawn) [(S)-1-[3-(3-Hydroxy-4-methoxy-phenyl)-4,5-dihydro-isoxazol-5-ylmethoxycarbonyl]-2-methyl-butyl-ammonium] | – | 4.24 | – |
| CCC(C)[C@H](N)C(=O)OC[C@H]1COC(c2ccc(O)c(OC)c2)=N1 (stereo partly drawn) [(S)-1-[(R)-2-(4-Hydroxy-3-methoxy-phenyl)-4,5-dihydro-oxazol-4-ylmethoxycarbonyl]-2-methyl-butyl-ammonium] | – | – | pIC50 [3]: 4.30 |
| CCC(C)[C@H](N)C(=O)OCCN(O)C(=O)Cc1ccc(OC)c(O)c1 (stereo partly drawn) [(S)-1-(2-{Hydroxy-[2-(3-hydroxy-4-methoxy-phenyl)-acetyl]-amino}-ethoxycarbonyl)-2-methyl-butyl-ammonium] | – | 4.68 | – |
| COc1cc(C2=NOC(COC(=O)[C@@H](N)CCSC)C2)ccc1O (stereo partly drawn) [(S)-1-[3-(4-Hydroxy-3-methoxy-phenyl)-4,5-dihydro-isoxazol-5-ylmethoxycarbonyl]-3-methylsulfanyl-propyl-ammonium] | 4.24 | – | – |
| CCC(C)[C@H](N)C(=O)OCC1CC(c2ccc(O)c(OC)c2)=NO1 (stereo partly drawn) [(S)-1-[3-(4-Hydroxy-3-methoxy-phenyl)-4,5-dihydro-isoxazol-5-ylmethoxycarbonyl]-2-methyl-butyl-ammonium] | – | 4.10 | – |
| COc1cc(CC(=O)NCCOC(=O)[C@@H](N)CCSC)ccc1O [(S)-1-{2-[2-(4-Hydroxy-3-methoxy-phenyl)-acetylamino]-ethoxycarbonyl}-3-methylsulfanyl-propyl-ammonium] | 4.03 | – | – |
| COc1cc(C2=N[C@@H](COC(=O)[C@@H](N)CCSC)CO2)ccc1O [(S)-1-[(R)-2-(4-Hydroxy-3-methoxy-phenyl)-4,5-dihydro-oxazol-4-ylmethoxycarbonyl]-3-methylsulfanyl-propyl-ammonium] | – | – | pIC50 [4]: 4.41 |
| CCC(C)[C@H](N)C(=O)OCCNC(=O)Cc1ccc(O)c(OC)c1 (stereo partly drawn) [(S)-1-{2-[2-(4-Hydroxy-3-methoxy-phenyl)-acetylamino]-ethoxycarbonyl}-2-methyl-butyl-ammonium] | – | 4.35 | – |
| COc1cc(CC(=O)N(O)CCOC(=O)[C@@H](N)CCSC)ccc1O [(S)-1-(2-{Hydroxy-[2-(4-hydroxy-3-methoxy-phenyl)-acetyl]-amino}-ethoxycarbonyl)-3-methylsulfanyl-propyl-ammonium] | 3.89 | – | – |
| CCC(C)[C@H](N)C(=O)OCCNC(=O)Cc1ccc(OC)c(O)c1 (stereo partly drawn) [(S)-1-{2-[2-(3-Hydroxy-4-methoxy-phenyl)-acetylamino]-ethoxycarbonyl}-2-methyl-butyl-ammonium] | – | 4.25 | – |
| CCC(C)[C@H](N)C(=O)OCCN(O)C(=O)c1ccc(OC)c(O)c1 (stereo partly drawn) [(S)-1-{2-[Hydroxy-(3-hydroxy-4-methoxy-benzoyl)-amino]-ethoxycarbonyl}-2-methyl-butyl-ammonium] | – | 5.35 | – |
| COc1ccc(C(=O)N(O)CCOC(=O)[C@@H](N)CCSC)cc1O [(S)-1-{2-[Hydroxy-(3-hydroxy-4-methoxy-benzoyl)-amino]-ethoxycarbonyl}-3-methylsulfanyl-propyl-ammonium] | 4.14 | – | – |
| CCC(C)[C@H](N)C(=O)OC[C@@H]1COC(c2ccc(O)c(OC)c2)=N1 (stereo partly drawn) [(S)-1-[(S)-2-(4-Hydroxy-3-methoxy-phenyl)-4,5-dihydro-oxazol-4-ylmethoxycarbonyl]-2-methyl-butyl-ammonium] | – | 4.41 | – |
| CCC(C)[C@H](N)C(=O)OCCN(O)C(=O)c1ccc(O)c(OC)c1 (stereo partly drawn) [(S)-1-{2-[Hydroxy-(4-hydroxy-3-methoxy-benzoyl)-amino]-ethoxycarbonyl}-2-methyl-butyl-ammonium] | – | 4.89 | – |

Second part, led by results:

| pIC50 [1] | pIC50 [2] | SMILES | also measured |
| --- | --- | --- | --- |
| 4.11 | – | COc1ccc(C(=O)NCCOC(=O)[C@@H](N)CCSC)cc1O [(S)-1-[2-(3-Hydroxy-4-methoxy-benzoylamino)-ethoxycarbonyl]-3-methylsulfanyl-propyl-ammonium] | – |
| – | 3.97 | CCC(C)[C@H](N)C(=O)OCCNC(=O)c1ccc(OC)c(O)c1 (stereo partly drawn) [(S)-1-[2-(3-Hydroxy-4-methoxy-benzoylamino)-ethoxycarbonyl]-2-methyl-butyl-ammonium] | – |
| – | 3.64 | CCC(C)[C@H](N)C(=O)OCCN(O)C(=O)Cc1ccc(O)c(OC)c1 (stereo partly drawn) [(S)-1-(2-{Hydroxy-[2-(4-hydroxy-3-methoxy-phenyl)-acetyl]-amino}-ethoxycarbonyl)-2-methyl-butyl-ammonium] | – |
| 4.47 | – | COc1cc(C2=N[C@H](COC(=O)[C@@H](N)CCSC)CO2)ccc1O [(S)-1-[(S)-2-(4-Hydroxy-3-methoxy-phenyl)-4,5-dihydro-oxazol-4-ylmethoxycarbonyl]-3-methylsulfanyl-propyl-ammonium] | – |
| 4.06 | – | COc1ccc(CC(=O)N(O)CCOC(=O)[C@@H](N)CCSC)cc1O [(S)-1-(2-{Hydroxy-[2-(3-hydroxy-4-methoxy-phenyl)-acetyl]-amino}-ethoxycarbonyl)-3-methylsulfanyl-propyl-ammonium] | – |
| 4.49 | – | COc1cc(C(=O)N(O)CCOC(=O)[C@@H](N)CCSC)ccc1O [(S)-1-{2-[Hydroxy-(4-hydroxy-3-methoxy-benzoyl)-amino]-ethoxycarbonyl}-3-methylsulfanyl-propyl-ammonium] | – |
| 3.79 | – | COc1ccc(CC(=O)NCCOC(=O)[C@@H](N)CCSC)cc1O [(S)-1-{2-[2-(3-Hydroxy-4-methoxy-phenyl)-acetylamino]-ethoxycarbonyl}-3-methylsulfanyl-propyl-ammonium] | – |
| 4.22 | – | COc1cc(C(=O)NCCOC(=O)[C@@H](N)CCSC)ccc1O [(S)-1-[2-(4-Hydroxy-3-methoxy-benzoylamino)-ethoxycarbonyl]-3-methylsulfanyl-propyl-ammonium] | – |
| – | 4.19 | CCC(C)[C@H](N)C(=O)OCCNC(=O)c1ccc(O)c(OC)c1 (stereo partly drawn) [(S)-1-[2-(4-Hydroxy-3-methoxy-benzoylamino)-ethoxycarbonyl]-2-methyl-butyl-ammonium] | – |
